For the assay, the target named is Tyrosine-protein kinase transforming protein Src (Rous sarcoma virus). Description: Inhibition of in vitro protein-tyrosine kinase activity of p60v-src enzyme in presence of 5 uM ATP.

The term IC50 denotes the concentration needed to halve the response being measured. Consider `Nc1cccc(-c2cc(=O)c3c(N)c(O)c(N)cc3o2)c1` [5,7-Diamino-2-(3-amino-phenyl)-6-hydroxy-chromen-4-one], for which the concentration for half-maximal inhibition (IC50) worked out at 38.4 µM.

Take `Nc1ccc(-c2cc(=O)c3c(N)c(O)c(N)cc3o2)cc1` [5,7-Diamino-2-(4-amino-phenyl)-6-hydroxy-chromen-4-one]: the IC50 is over 50 µM.

Regarding `Nc1ccc(-c2cc(=O)c3cc(N)c(O)c(N)c3o2)cc1` [6,8-Diamino-2-(4-amino-phenyl)-7-hydroxy-chromen-4-one], the IC50 is over 50 µM. `Nc1ccc(-c2cc(=O)c3cc(N)cc(N)c3o2)cc1` [6,8-Diamino-2-(4-amino-phenyl)-chromen-4-one]: the IC50 was over 50 µM.

On to `Nc1cccc(-c2cc(=O)c3cc(N)c(O)cc3o2)c1` [6-Amino-2-(3-amino-phenyl)-7-hydroxy-chromen-4-one], for which the IC50 was over 50 µM.

As to `Nc1cccc(-c2cc(=O)c3cc(N)ccc3o2)c1` [6-Amino-2-(3-amino-phenyl)-chromen-4-one], the IC50 was over 50 µM. For the compound `Nc1ccc(-c2cc(O)c3c(=O)c(N)ccc-3o2)cc1` [6-Amino-2-(4-amino-phenyl)-5-hydroxy-chromen-4-one], the IC50 was over 50 µM. `Nc1ccc(-c2cc(=O)c3cc(N)c(O)cc3o2)cc1` [6-Amino-2-(4-amino-phenyl)-7-hydroxy-chromen-4-one]: the IC50 is over 50 µM.

For the compound `Nc1ccc(-c2cc(=O)c3cc(N)ccc3o2)cc1` [6-Amino-2-(4-amino-phenyl)-chromen-4-one], the IC50 was determined as 28.8 µM. As for `Nc1ccc(-c2cc(=O)c3c(O)ccc(N)c3o2)cc1` [8-Amino-2-(4-amino-phenyl)-5-hydroxy-chromen-4-one], the IC50 was over 50 µM. `Nc1ccc(-c2cc(=O)c3cc(O)cc(N)c3o2)cc1` [8-Amino-2-(4-amino-phenyl)-6-hydroxy-chromen-4-one]: the IC50 was over 50 µM. `COc1cc(N)c2oc(-c3ccc(N)cc3)cc(=O)c2c1` [8-Amino-2-(4-amino-phenyl)-6-methoxy-chromen-4-one]: the IC50 is over 50 µM. Then `Nc1ccc(-c2cc(=O)c3ccc(O)c(N)c3o2)cc1` [8-Amino-2-(4-amino-phenyl)-7-hydroxy-chromen-4-one], with over 50 µM; and `Nc1ccc(-c2cc(=O)c3cccc(N)c3o2)cc1` [8-Amino-2-(4-amino-phenyl)-chromen-4-one], with over 50 µM.

The record behind these values is BindingDB's records for doi:10.1021/jm00046a020 (Purdue University, 1994).
